In US8697127B2, “Method for preparing microspheres and microspheres produced thereby” (Ewha University-Industry Collaboration Foundation, priority 2008, dated 2014):

What was measured:
[1] = Aripiprazole encapsulation ratio of PLGA microparticles (HPLC); assay type: physicochemical; conditions: PLGA 4A/0.25 g; 60 mg of aripiprazole; Ethyl formate; 5 mL of 8 M NaOH
Method: (§1) 0.25 g of 4A was dissolved in 4 mL of ethyl formate. Then, 60 mg of aripiprazole was dissolved to prepare a dispersed phase. The solution was added to 40 mL of 0.5% PVA aqueous solution and stirred. After adding 5 mL of 8 M NaOH to the resultant o/w emulsion, followed by reaction for 30 minutes, 40 mL of distilled water was further added and, after stirring, microparticles were recovered by filtration. The microparticles were redispersed in 16 mL of 0.5% PVA aqueous solution. After adding distilled water to make 80 mL, the solution was stirred. After filtration, the microparticles were dried overnight in a vacuum dryer.
Some of the microparticles including aripiprazole were accurately weighed and dissolved in 4 mL of tetrahydrofuran. After diluting 6 times with ethanol, the solution was filtered to remove the PLGA precipitate. Some of the filtrate (20 μl) was subjected to HPLC (Shimadzu LC-20AD) for measurement of aripiprazole concentration. Drug encapsulation ratio (%) was calculated using the equations given in Example <7-2>.

[2] = Encapsulation ratio of docetaxel, piroxicam, rivastigmine or tolterodine in PLGA microparticles (HPLC); assay type: physicochemical; conditions: 0.25 g of 7E, 5 mL of 7 M NaOH
Method: Then, 0.25 g of 7E was dissolved to prepare a dispersed phase. The solution was added to 40 mL of 0.5% PVA aqueous solution and stirred. After adding 5 mL of 7 M NaOH to the resultant o/w emulsion, followed by reaction for 30 minutes, 40 mL of distilled water was further added and, after stirring, microparticles were recovered by filtration. The microparticles were redispersed in 16 mL of 0.5% PVA aqueous solution. After adding distilled water to make 80 mL, the solution was stirred. […] After diluting 6 times with ethanol, the solution was filtered to remove the PLGA precipitate.

[3] = background statement on organic solvents; cited from earlier work
[4] = Progesterone encapsulation ratio of PLGA microparticles (HPLC); assay type: physicochemical
Method: 0.25 g of 7E or 4A was dissolved in 4 mL of ethyl acetate. […] After stirring and filtration, microparticles were recovered. The microparticles were redispersed in 16 mL of 0.5% PVA solution and stirred, after adding distilled water to make 80 mL. […] Similarly, microparticles encapsulating progesterone were prepared using ethyl formate instead of ethyl acetate and using 6 mL of 10 M NaOH or 5 mL of 10 M HCl as a decomposition reagent. Some of the microparticles prepared in Example <7-1> were accurately weighed and dissolved in 4 mL of tetrahydrofuran. After diluting 6 times with methanol, the solution was filtered to remove the PLGA precipitate. Some of the filtrate (20 μl) was subjected to HPLC (Shimadzu LC-20AD, Luna 5 m C18(2) column) for measurement of progesterone concentration. Theoretical drug load (%) and actual drug load (%) were calculated from the following equations, and their ratio was defined as drug encapsulation ratio (%). Theoretical drug load (%)=(Weight of drug used (mg)/[Weight of PLGA used (mg)+Weight of drug used (mg)])×100 Actual drug load (%)=(Weight of drug encapsulated in microparticles (mg)/Weight of microparticles used for encapsulation ratio measurement (mg))×100 Drug encapsulation ratio (%)=(Actual drug load (%)/Theoretical drug load (%))×100 0.25 g of 7E was dissolved in 4 mL of isopropyl formate or propyl formate. […] After stirring and filtration, microparticles were recovered. The microparticles were redispersed in 16 mL of 0.5% PVA solution and stirred, after adding distilled water to make 80 mL. After filtration, the microparticles were in a vacuum dryer.

[5] = Thermogravimetric analysis of microparticles; assay type: physicochemical; conditions: up to 150° C.; isopropyl formate, 0.25 g of 7E and 250 mg of progesterone; 10° C./min, nitrogen
Method: The microparticles prepared in Example <7-3> (using isopropyl formate, 0.25 g of 7E and 250 mg of progesterone) and microparticles not including progesterone were analyzed using a thermogravimetric analyzer (TGA 2050). Nitrogen was used as a purge gas. Change in weight of the microparticles was automatically recorded while increasing temperature at a rate of 10° C./min.

[6] = Risperidone encapsulation ratio of PLGA microparticles (HPLC); assay type: physicochemical; conditions: PLGA 4A/0.25 g; 60 mg of risperidone; Ethyl formate; 5 mL of 8 M NaOH
Method: as §1, with “risperidone” for “aripiprazole”
Some of the microparticles including risperidone were accurately weighed and dissolved in 4 mL of tetrahydrofuran. After diluting 6 times with ethanol, the solution was filtered to remove the PLGA precipitate. Some of the filtrate (20 μl) was subjected to HPLC (Shimadzu LC-20AD) for measurement of risperidone concentration. Drug encapsulation ratio (%) was calculated using the equations given in Example <7-2>.

[7] = 50 mg of docetaxel, Ethyl acetate
[8] = 50 mg of piroxicam, Ethyl formate
[9] = PLGA 4A/0.25 g, progesterone 60 mg, 10M NaOH 5 mL, ethyl acetate
[10] = PLGA 4A/0.25 g, progesterone 60 mg, 10M NaOH 6 mL, ethyl formate
[11] = PLGA 4A/0.25 g, progesterone 250 mg, 10M NaOH 5 mL, ethyl acetate
[12] = PLGA 4A/0.25 g, progesterone 250 mg, 10M NaOH 6 mL, ethyl formate
[13] = PLGA 7E/0.25 g, progesterone 60 mg, 10M HCl 5 mL, ethyl formate
[14] = PLGA 7E/0.25 g, progesterone 60 mg, 10M NaOH 5 mL, ethyl acetate
[15] = PLGA 7E/0.25 g, progesterone 60 mg, 10M NaOH 6 mL, ethyl formate
[16] = PLGA 7E/0.25 g, progesterone 100 mg, 10M HCl 5 mL, ethyl formate
[17] = PLGA 7E/0.25 g, progesterone 160 mg, 10M HCl 5 mL, ethyl formate
[18] = PLGA 7E/0.25 g, progesterone 200 mg, 10M HCl 5 mL, ethyl formate
[19] = PLGA 7E/0.25 g, progesterone 250 mg, 10M HCl 5 mL, ethyl formate
[20] = PLGA 7E/0.25 g, progesterone 250 mg, 10M NaOH 5 mL, ethyl acetate
[21] = PLGA 7E/0.25 g, progesterone 250 mg, 10M NaOH 6 mL, ethyl formate
[22] = 40 μl of rivastigmine, Ethyl acetate (table)
[23] = 40 mg of tolterodine, Ethyl formate

O=C1CCc2ccc(OCCCCN3CCN(c4cccc(Cl)c4Cl)CC3)cc2N1 [aripiprazole]
Average encapsulation ratio of 3 batches [1]: 72.3±2.0%
Encapsulation ratio (%) Batch 1 [1]: 72.2%
Encapsulation ratio (%) Batch 2 [1]: 74.3%
Encapsulation ratio (%) Batch 3 [1]: 70.3%

CC(=O)O[C@@]12CO[C@@H]1C[C@H](O)[C@@]1(C)C(=O)[C@H](O)C3=C(C)[C@@H](OC(=O)[C@H](O)[C@@H](NC(=O)OC(C)(C)C)c4ccccc4)C[C@@](O)([C@@H](OC(=O)c4ccccc4)[C@H]21)C3(C)C [docetaxel]
Encapsulation ratio (%) Batch 1 [2, 7]: 83.2%
Encapsulation ratio (%) Batch 2 [2, 7]: 80.2%
Encapsulation ratio (%) Batch 3 [2, 7]: 84.2%

CCOC(C)=O [ethyl acetate]
water solubility [3]: 8.7 % by weight

ClCCl [methylene chloride]
water solubility [3]: 1.32 % by weight

CN1C(C(=O)Nc2ccccn2)=C(O)c2ccccc2S1(=O)=O [piroxicam]
Encapsulation ratio (%) Batch 1 [2, 8]: 76.2%
Encapsulation ratio (%) Batch 2 [2, 8]: 81.2%
Encapsulation ratio (%) Batch 3 [2, 8]: 79.2%

CC(=O)[C@H]1CC[C@H]2[C@@H]3CCC4=CC(=O)CC[C@]4(C)[C@H]3CC[C@]12C [progesterone]
Encapsulation ratio (%) Batch 1 [4, 9]: 90.5%
Encapsulation ratio (%) Batch 2 [4, 9]: 92.8%
Encapsulation ratio (%) Batch 3 [4, 9]: 95.3%
Encapsulation ratio (%) Batch 1 [4, 10]: 92.0%
Encapsulation ratio (%) Batch 2 [4, 10]: 93.3%
Encapsulation ratio (%) Batch 3 [4, 10]: 95.6%
Encapsulation ratio (%) Batch 1 [4, 11]: 93.2%
Encapsulation ratio (%) Batch 2 [4, 11]: 92.2%
Encapsulation ratio (%) Batch 3 [4, 11]: 98.5%
Encapsulation ratio (%) Batch 1 [4, 12]: 96.2%
Encapsulation ratio (%) Batch 2 [4, 12]: 93.2%
Encapsulation ratio (%) Batch 3 [4, 12]: 100.7%
Encapsulation ratio (%) Batch 1 [4, 13]: 84.1%
Encapsulation ratio (%) Batch 2 [4, 13]: 88.7%
Encapsulation ratio (%) Batch 3 [4, 13]: 86.1%
Encapsulation ratio (%) Batch 1 [4, 14]: 93.8%
Encapsulation ratio (%) Batch 2 [4, 14]: 92.3%
Encapsulation ratio (%) Batch 3 [4, 14]: 96.0%
Encapsulation ratio (%) Batch 1 [4, 15]: 93.9%
Encapsulation ratio (%) Batch 2 [4, 15]: 94.0%
Encapsulation ratio (%) Batch 3 [4, 15]: 91.6%
Encapsulation ratio (%) Batch 1 [4, 16]: 89.0%
Encapsulation ratio (%) Batch 2 [4, 16]: 92.8%
Encapsulation ratio (%) Batch 3 [4, 16]: 91.5%
Encapsulation ratio (%) Batch 1 [4, 17]: 98.9%
Encapsulation ratio (%) Batch 2 [4, 17]: 102.0%
Encapsulation ratio (%) Batch 3 [4, 17]: 96.9%
Encapsulation ratio (%) Batch 1 [4, 18]: 99.2%
Encapsulation ratio (%) Batch 2 [4, 18]: 102.0%
Encapsulation ratio (%) Batch 3 [4, 18]: 95.5%
Encapsulation ratio (%) Batch 1 [4, 19]: 101.0%
Encapsulation ratio (%) Batch 2 [4, 19]: 101.0%
Encapsulation ratio (%) Batch 3 [4, 19]: 99.6%
Encapsulation ratio (%) Batch 1 [4, 20]: 92.8%
Encapsulation ratio (%) Batch 2 [4, 20]: 92.0%
Encapsulation ratio (%) Batch 3 [4, 20]: 97.7%
Encapsulation ratio (%) Batch 1 [4, 21]: 95.5%
Encapsulation ratio (%) Batch 2 [4, 21]: 98.5%
Encapsulation ratio (%) Batch 3 [4, 21]: 99.7%
weight loss of the microparticles [5]: 0.75%

Cc1nc2n(c(=O)c1CCN1CCC(c3noc4cc(F)ccc34)CC1)CCCC2 [risperidone]
Average encapsulation ratio of 3 batches [6]: 75.0±1.4%
Encapsulation ratio (%) Batch 1 [6]: 75.2%
Encapsulation ratio (%) Batch 2 [6]: 73.6%
Encapsulation ratio (%) Batch 3 [6]: 76.3%

CCN(C)C(=O)Oc1cccc([C@H](C)N(C)C)c1 [rivastigmine]
Encapsulation ratio (%) Batch 1 [2, 22]: 74.2%
Encapsulation ratio (%) Batch 2 [2, 22]: 79.2%
Encapsulation ratio (%) Batch 3 [2, 22]: 78.1%

Cc1ccc(O)c([C@H](CCN(C(C)C)C(C)C)c2ccccc2)c1 [tolterodine]
Encapsulation ratio (%) Batch 1 [2, 23]: 70.3%
Encapsulation ratio (%) Batch 2 [2, 23]: 77.3%
Encapsulation ratio (%) Batch 3 [2, 23]: 73.2%
